{
  "source": "paper PMC9539280",
  "about": "(Advanced Science, 2022)",
  "key": {"[1]": {"tested_on": "hCMs"}, "[2]": {"tested_on": "hCMs (human pluripotent stem cell-derived cardiomyocytes)", "experiment": "Cytotoxicity assay, calcein-AM/PI double staining, relative cell viability", "type": "cell-based", "conditions": "6 days, escalating concentrations (0.03-3 or 1-30 × 10^−6 M), calcein-AM/PI", "procedure": "hCMs were dissociated with 0.25% trypsin/EDTA (25200072, Gibco) and then seeded into 384‐well plates at the density of 8 × 10^3 cells per well. 24 h after seeding, cells were exposed to the drugs at the indicated concentrations for 6 days. Culture media were fully changed every 3 days with new drug supplementation. After drug treatment, cells were stained with calcein‐AM/PI/Hoechst for 20 min using calcein‐AM/PI double staining kit (C542, DOJINDO). Images were captured by the Operetta CLS High‐Content Analysis System (PerkinElmer). Number of live cells (calcein‐AM+/PI‐) and dead cells (PI+) was quantified by using the Harmony 4.9 software (PerkinElmer). Number of live cells was used to calculate the “relative cell viability” as follows (1) relarivecellviability=numberoflivecellsineachtreatment/numberoflivecellsinDMSOcontrol×100%"}, "[3]": {"tested_on": "hCMs", "remark": "listed apart in the source"}, "[4]": {"tested_on": "hCMs", "remark": "listed apart in the source"}, "[5]": {"tested_on": "hEHTs (human engineered heart tissues)"}, "[6]": {"tested_on": "hCMs", "remark": "listed apart in the source"}, "[7]": {"conditions": "in vivo; cited from earlier work"}, "[8]": {"tested_on": "hEHTs (human engineered heart tissues)", "remark": "listed apart in the source"}},
  "data": [
    {"smiles": "Cc1cccc(/C=N/Nc2cc(N3CCOCC3)nc(OCCc3ccccn3)n2)c1", "note": "[Apilimod, apilimod]", "values": [
      {"measurement": "intracellular calcium handling properties of hCMs", "setting": "[1]", "value": "impair"},
      {"measurement": "cell viability of hCMs", "setting": "[2]", "value": "dose‐dependent decrease"},
      {"measurement": "calcium transient amplitude", "setting": "[3]", "value": "without apparently affecting"},
      {"measurement": "time to 50% decay of the calcium transients", "setting": "[3]", "value": "increased"},
      {"measurement": "time to peak of the calcium transients", "setting": "[3]", "value": "increased"},
      {"measurement": "apoptosis of hCMs (TUNEL)", "setting": "[4]", "value": "increased apoptosis"},
      {"measurement": "toxicity to hEHTs", "setting": "[5]", "value": "toxic to hEHTs"},
      {"measurement": "sarcomere organization of hCMs", "setting": "[6]", "value": "sarcomeric disarray"},
      {"measurement": "Cmax", "setting": "[7]", "value": 270, "unit": "nM"},
      {"measurement": "abnormal beating of hEHTs (spontaneous contractility)", "setting": "[8]", "value": "more severe"},
      {"measurement": "contractile force of hEHTs", "setting": "[8]", "value": "much lower"},
      {"measurement": "hEHT function (tissue level cardiotoxicity)", "setting": "[8]", "value": "weaken hEHT function"},
      {"measurement": "passive force of hEHTs", "setting": "[8]", "value": "increases of the passive force"}
    ]}
  ]
}
